Laboratory results as given in patent US5616327A (SRI International, priority 1994, dated 1997).
Where no end group is shown, it is not given here.

Target: RNA polymerase-RNA complex ("cores" with transcriptase activity) (Influenza A virus, UniProt P03428+P03431+P03433)
Test: biochemical
Parameters: species or system Influenza virus A/PR/8/34
Conditions: for inhibition at 0.05 µM / inhibition at 0.5 µM / inhibition at 5 µM / inhibition at 50 µM: read-out: % Inhibition (inhibition of polymerase by peptides)

Row | Compound | inhibition at 0.05 µM | inhibition at 0.5 µM | inhibition at 5 µM | inhibition at 50 µM | 50% inhibition (concentration, in words) | inhibition at 1 µM (1 μM, read-out: % Inhibition (inhibition of polymerase by peptide 6)) | inhibition at 10 µM (10 μM, read-out: % Inhibition (inhibition of polymerase by peptide 6)) | inhibition at 100 µM (100 μM, read-out: % Inhibition (inhibition of polymerase by peptide 6)) | inhibition at 0.001 µM (.001 μM, read-out: % Inhibition (inhibition of polymerase by peptide 6)) | inhibition at 0.01 µM (.010 μM, read-out: % Inhibition (inhibition of polymerase by peptide 6)) | inhibition at 0.1 µM (.100 μM, read-out: % Inhibition (inhibition of polymerase by peptide 6))
1 | CSCC[C@H](NC(=O)[C@H](CC(N)=O)NC(=O)[C@H](CC(N)=O)NC(=O)[C@@H]1CCCN1C(=O)[C@H](CC(=O)O)NC(=O)CNC(=O)[C@H](CC(N)=O)NC(=O)CNC(=O)[C@H](CC(N)=O)NC(=O)[C@H](CC(C)C)NC(=O)[C@H](C)N)C(=O)N[C@@H](CC(=O)O)C(=O)N[C@@H](CCCCN)C(=O)N[C@@H](C)C(=O)N[C@H](C(=O)N[C@@H](CCCCN)C(=O)N[C@@H](CC(C)C)C(=O)N[C@@H](Cc1ccc(O)cc1)C(=O)O)C(C)C [Peptide 2] | -37% | -10% | -20% | -13% | – | – | – | – | – | – | –
2 | CC[C@H](C)[C@H](NC(=O)[C@H](CCC(N)=O)NC(=O)[C@@H](N)CCC(=O)O)C(=O)N[C@@H](C)C(=O)N[C@@H](CC(=O)O)C(=O)N[C@@H](CO)C(=O)N[C@@H](CCC(N)=O)C(=O)N[C@@H](Cc1c[nH]cn1)C(=O)N[C@@H](CCCNC(=N)N)C(=O)N[C@@H](CO)C(=O)N[C@@H](Cc1c[nH]cn1)C(=O)N[C@@H](CCCNC(=N)N)C(=O)N[C@@H](CCC(N)=O)C(=O)N[C@@H](CCSC)C(=O)N[C@H](C(=O)O)C(C)C [Peptide 4] | 38% | 22% | 23% | 32% | – | – | – | – | – | – | –
3 | CC(C)C[C@H](NC(=O)CNC(=O)[C@H](C)NC(=O)[C@H](CO)NC(=O)[C@H](CO)NC(=O)[C@H](CO)NC(=O)[C@@H]1CCCN1C(=O)[C@H](Cc1c[nH]cn1)NC(=O)[C@@H](NC(=O)CN)[C@@H](C)O)C(=O)N[C@@H](CCCCN)C(=O)N[C@@H](CC(N)=O)C(=O)N[C@@H](CC(=O)O)C(=O)N[C@@H](CC(C)C)C(=O)N[C@@H](CC(C)C)C(=O)N[C@@H](CCC(=O)O)C(=O)N[C@@H](CC(N)=O)C(=O)O [Peptide 5] | 16% | 14% | 1% | -30% | – | – | – | – | – | – | –
4 | CC[C@H](C)[C@H](NC(=O)[C@H](CCC(N)=O)NC(=O)[C@H](CCC(=O)O)NC(=O)[C@H](CS)NC(=O)[C@@H](NC(=O)[C@H](C)NC(=O)[C@@H](N)CS)[C@@H](C)O)C(=O)N[C@@H](C)C(=O)N[C@@H](CC(=O)O)C(=O)N[C@@H](CO)C(=O)N[C@@H](CCC(N)=O)C(=O)N[C@@H](Cc1c[nH]cn1)C(=O)N[C@@H](CCCNC(=N)N)C(=O)N[C@@H](CO)C(=O)N[C@@H](Cc1c[nH]cn1)C(=O)N[C@@H](CCCNC(=N)N)C(=O)N[C@@H](CCC(N)=O)C(=O)N[C@@H](CCSC)C(=O)N[C@H](C(=O)O)C(C)C [Peptide 6] | – | – | – | – | picomolar range | > 100% | 98% | 81% | 77% | 82% | 99%
5 | KREITFHGAKEISLS [Peptide 3] | 9% | 8% | -9% | -30% | – | – | – | – | – | – | –
6 | LTVPSERGLQRRR [Peptide 1] | 3% | 2% | 9% | 35% | – | – | – | – | – | – | –
